Data published in ChEMBL document CHEMBL2073781, “Organ distribution of multidrug resistance proteins 1, 2, and 3 (Mrp1, 2, and 3) mRNA and hepatic induction of Mrp3 by constitutive androstane receptor activators in rats” (J Pharmacol Exp Ther, 2002).

The compounds below were run against ATP-binding cassette sub-family C member 2 (Rattus norvegicus, UniProt Q63120) (assay: TP_TRANSPORTER: Branched DNA assay in vivo SD rat, kidney).
Format: functional, organism-based, Sprague-Dawley

ATP-binding cassette sub-family C member 2, sequence (Q63120 whole entry): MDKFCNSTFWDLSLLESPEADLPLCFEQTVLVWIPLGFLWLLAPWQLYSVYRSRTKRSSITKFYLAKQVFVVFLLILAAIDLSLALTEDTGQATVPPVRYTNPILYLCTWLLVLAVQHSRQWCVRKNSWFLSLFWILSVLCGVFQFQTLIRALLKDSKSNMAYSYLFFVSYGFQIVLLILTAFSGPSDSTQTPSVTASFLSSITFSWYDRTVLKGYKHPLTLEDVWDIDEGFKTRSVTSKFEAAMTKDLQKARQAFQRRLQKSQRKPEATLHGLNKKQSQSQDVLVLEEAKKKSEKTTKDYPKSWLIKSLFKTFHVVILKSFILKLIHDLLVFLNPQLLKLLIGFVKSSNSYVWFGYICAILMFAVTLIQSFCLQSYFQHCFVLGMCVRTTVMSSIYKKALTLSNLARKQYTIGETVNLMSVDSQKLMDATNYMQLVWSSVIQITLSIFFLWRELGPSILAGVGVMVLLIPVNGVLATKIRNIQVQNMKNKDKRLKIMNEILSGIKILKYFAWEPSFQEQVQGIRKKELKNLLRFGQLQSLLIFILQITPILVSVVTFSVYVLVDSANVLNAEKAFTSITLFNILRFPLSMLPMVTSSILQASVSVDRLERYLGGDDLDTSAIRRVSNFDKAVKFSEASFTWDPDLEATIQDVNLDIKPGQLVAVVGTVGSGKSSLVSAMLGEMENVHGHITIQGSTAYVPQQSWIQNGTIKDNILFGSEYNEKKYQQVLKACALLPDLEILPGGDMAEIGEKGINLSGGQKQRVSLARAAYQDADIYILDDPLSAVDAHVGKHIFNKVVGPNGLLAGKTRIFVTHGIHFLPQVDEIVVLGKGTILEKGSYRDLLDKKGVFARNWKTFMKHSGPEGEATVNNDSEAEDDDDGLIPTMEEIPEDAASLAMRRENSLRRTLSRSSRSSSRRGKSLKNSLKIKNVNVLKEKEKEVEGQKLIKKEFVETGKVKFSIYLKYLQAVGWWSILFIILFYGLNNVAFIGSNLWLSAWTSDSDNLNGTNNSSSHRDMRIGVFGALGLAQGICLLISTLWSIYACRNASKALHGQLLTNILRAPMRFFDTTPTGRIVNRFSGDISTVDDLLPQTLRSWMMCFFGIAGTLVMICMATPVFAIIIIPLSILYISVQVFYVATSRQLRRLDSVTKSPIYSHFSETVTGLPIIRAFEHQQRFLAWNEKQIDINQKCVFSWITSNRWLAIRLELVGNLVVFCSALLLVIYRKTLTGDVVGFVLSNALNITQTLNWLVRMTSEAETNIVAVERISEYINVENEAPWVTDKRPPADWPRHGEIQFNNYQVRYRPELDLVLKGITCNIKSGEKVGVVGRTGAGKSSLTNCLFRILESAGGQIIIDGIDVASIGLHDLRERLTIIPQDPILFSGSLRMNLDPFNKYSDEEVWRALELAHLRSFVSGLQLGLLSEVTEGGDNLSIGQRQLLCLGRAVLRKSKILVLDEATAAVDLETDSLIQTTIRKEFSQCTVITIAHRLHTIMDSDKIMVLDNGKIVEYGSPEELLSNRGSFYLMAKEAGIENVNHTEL

| Activity | SMILES |
| --- | --- |
| inducer [+] | CN(N=O)C(=O)N[C@@H](C=O)[C@@H](O)[C@H](O)[C@H](O)CO [STREPTOZOCIN] |
| inducer [+] | OCc1c[nH]c2ccccc12 [INDOLE-3-CARBINOL] |
| inducer [+] | O=c1cc(-c2ccccc2)oc2ccc3ccccc3c12 [BETA-NAPHTHOFLAVONE] |

| SMILES | Activity |
| --- | --- |
| CCCC[C@@H](CC)COC(=O)c1ccccc1C(=O)OC[C@@H](CC)CCCC [BIS(2-ETHYLHEXYL)PHTHALATE] | inducer [+] |
